This assay concerns the target T1, human TRPV4 (Homo sapiens, UniProt Q9HBA0).
T1 construct: expressed in transfected cells; host or cells: HEK-293-MSR-II cells transduced with 1% BacMam virus
As to the kind of experiment: Ligand-gated assay (Fluo4 calcium, FLIPR; inhibition of agonist-induced activation). Conditions: HEK-293-MSR-II cells transduced with BacMam human TRPV4; agonist at EC80. Type of assay: cell-based. In a few lines:
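Agonist (EC80) response read on FLIPR as Fluo-4 (2 uM) fluorescence after 10-min room-temperature compound exposure in HBSS/HEPES pH 7.4 with 0.01% Chaps. Cells: HEK-293-MSR-II expressing human TRPV4 via BacMam; output is IC50 of inhibition.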

In general, IC50 refers to the concentration needed to halve the response being measured.

T1 sequence (Q9HBA0 whole entry): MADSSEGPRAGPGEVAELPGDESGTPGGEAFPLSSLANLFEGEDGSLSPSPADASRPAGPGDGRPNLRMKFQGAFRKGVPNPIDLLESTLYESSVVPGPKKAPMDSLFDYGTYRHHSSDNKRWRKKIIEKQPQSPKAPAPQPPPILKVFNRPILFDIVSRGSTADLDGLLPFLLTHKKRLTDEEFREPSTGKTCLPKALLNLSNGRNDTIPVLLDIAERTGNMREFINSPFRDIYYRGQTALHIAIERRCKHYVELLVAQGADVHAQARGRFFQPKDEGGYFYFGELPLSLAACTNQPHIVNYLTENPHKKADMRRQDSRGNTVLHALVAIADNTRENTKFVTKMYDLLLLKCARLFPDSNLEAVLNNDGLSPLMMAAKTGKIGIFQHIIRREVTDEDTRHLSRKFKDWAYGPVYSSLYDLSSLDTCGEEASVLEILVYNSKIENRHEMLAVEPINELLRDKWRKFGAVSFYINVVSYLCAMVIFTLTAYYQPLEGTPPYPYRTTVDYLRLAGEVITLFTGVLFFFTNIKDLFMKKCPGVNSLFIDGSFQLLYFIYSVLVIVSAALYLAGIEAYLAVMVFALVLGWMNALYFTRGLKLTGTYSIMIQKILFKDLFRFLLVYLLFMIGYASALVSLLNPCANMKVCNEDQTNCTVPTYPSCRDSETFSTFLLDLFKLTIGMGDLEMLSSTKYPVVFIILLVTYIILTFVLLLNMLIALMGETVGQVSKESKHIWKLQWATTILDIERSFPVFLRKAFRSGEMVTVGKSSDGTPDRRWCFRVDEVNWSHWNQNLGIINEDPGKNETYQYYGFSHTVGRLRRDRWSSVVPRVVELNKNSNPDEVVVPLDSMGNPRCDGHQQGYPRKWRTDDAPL

For the molecule `Cc1ccncc1N1C[C@@]2(CCC[C@](C)(Cn3cnc4ccc(C#N)cc43)C2)OC1=O` [Example 146, 1-(((5S,7S)-7-methyl-3-(4-methylpyridin-3-yl)-2-oxo-1-oxa-3-azaspiro[4.5]decan-7-yl)methyl)-1H-benzo[d]imidazole-6-carbonitrile], the IC50 fell in the range of 0.1 to 10 nM.
Take `N#Cc1ccc2ncn(C[C@H]3CCC[C@]4(C3)CN(Cc3cn(-c5ccccc5)nn3)C(=O)O4)c2c1` [Example 87, 1-({(5S,7S)-2-oxo-3-[(1-phenyl-1H-1,2,3-triazol-4-yl)methyl]-1-oxa-3-azaspiro[4.5]dec-7-yl}methyl]-1H-benzimidazole-6-carbonitrile]: the IC50 was 10 to 50 nM.
For `Cc1cccc(-n2cc(CN3C[C@@]4(CCC[C@H](Cn5cnc6ccc(C#N)cc65)C4)OC3=O)nn2)c1` [Example 96, 1-[((5S,7S)-3-{[1-(3-methylphenyl)-1H-1,2,3-triazol-4-yl]methyl}-2-oxo-1-oxa-3-azaspiro[4.5]dec-7-yl)methyl]-1H-benzimidazole-6-carbonitrile] the value was 10 to 50 nM; for `C[C@]1(Cn2cnc3ccc(C#N)cc32)CCC[C@@]2(CN(c3cc(-c4ccccc4)no3)C(=O)O2)C1` [Example 35, 1-{[(5S,7S)-7-methyl-2-oxo-3-(3-phenyl-5-isoxazolyl)-1-oxa-3-azaspiro[4.5]dec-7-yl]methyl}-1H-benzimidazole-6-carbonitrile], 10 to 50 nM; for `N#Cc1ccc2ncn(C[C@H]3CCC[C@]4(C3)CN(Cc3csc5ncccc35)C(=O)O4)c2c1` [Example 151, 1-{[(5S,7S)-2-oxo-3-(thieno[2,3-b]pyridin-3-ylmethyl)-1-oxa-3-azaspiro[4.5]dec-7-yl]methyl}-1H-benzimidazole-6-carbonitrile], 50 to 500 nM.
As for `COc1ccncc1N1C[C@@]2(CCC[C@](C)(Cn3cnc4ccc(C#N)cc43)C2)OC1=O` [Example 149, 1-(((5S,7S)-3-(4-methoxypyridin-3-yl)-7-methyl-2-oxo-1-oxa-3-azaspiro[4.5]decan-7-yl)methyl)-1H-benzo[d]imidazole-6-carbonitrile], the IC50 fell in the range of 50 to 500 nM.
As for `CC(C)(CO)c1cnc(N2C[C@@]3(CCC[C@](C)(Cn4cnc5ccc(C#N)cc54)C3)OC2=O)cn1` [Example 168, 1-(((5S,7S)-3-(5-(1-hydroxy-2-methylpropan-2-yl)pyrazin-2-yl)-7-methyl-2-oxo-1-oxa-3-azaspiro[4.5]decan-7-yl)methyl)-1H-benzo[d]imidazole-6-carbonitrile], the IC50 was in the range of 10 to 50 nM.
On to `N#Cc1cc(Cl)c2ncn(C[C@H]3CCC[C@]4(C3)CN(CC3(c5nc(C6CCCC6)no5)CCOCC3)C(=O)O4)c2c1` [Example 85, 4-chloro-1-[((5S,7S)-3-{[4-(3-cyclopentyl-1,2,4-oxadiazol-5-yl)tetrahydro-2H-pyran-4-yl]methyl}-2-oxo-1-oxa-3-azaspiro[4.5]dec-7-yl)methyl]-1H-benzimidazole-6-carbonitrile], for which the 50% inhibitory concentration (IC50) was 0.1 to 10 nM.
Consider `CC(C)(C#N)c1ccc(N2C[C@@]3(CCC[C@](C)(Cn4cnc5ccc(C#N)cc54)C3)OC2=O)cn1` [Example 133, 1-(((5S,7S)-3-(6-(2-cyanopropan-2-yl)pyridin-3-yl)-7-methyl-2-oxo-1-oxa-3-azaspiro[4.5]decan-7-yl)methyl]-1H-benzo[d]imidazole-6-carbonitrile], for which the IC50 lay in the range of 0.1 to 10 nM.
For `COC(C)(C)c1cnc(N2C[C@@]3(CCC[C@](C)(Cn4cnc5ccc(C#N)cc54)C3)OC2=O)cn1` [Example 162, 1-(((5S,7S)-3-(5-(2-methoxypropan-2-yl)pyrazin-2-yl)-7-methyl-2-oxo-1-oxa-3-azaspiro[4.5]decan-7-yl)methyl)-1H-benzo[d]imidazole-6-carbonitrile], the 50% inhibitory concentration (IC50) lay in the range of 0.1 to 10 nM.
`Cc1ccc(N2C[C@@]3(CCC[C@](C)(Cn4cnc5ccc(C#N)cc54)C3)OC2=O)cn1` [Example 140, 1-(((5S,7S)-7-methyl-3-(6-methylpyridin-3-yl)-2-oxo-1-oxa-3-azaspiro[4.5]decan-7-yl)methyl)-1H-benzo[d]imidazole-6-carbonitrile]: the IC50 was in the range of 50 to 500 nM.
On to `C[C@]1(Cn2cnc3ccc(C#N)cc32)CCC[C@@]2(CN(c3ncccc3C(F)(F)F)C(=O)O2)C1` [Example 26, 1-(((5S,7S)-7-Methyl-2-oxo-3-(3-(trifluoromethyl)pyridin-2-yl)-1-oxa-3-azaspiro[4.5]decan-7-yl)methyl)-1H-benzo[d]imidazole-6-carbonitrile], for which the IC50 lay within 50 to 500 nM.
As for `C[C@]1(Cn2cnc3ccc(C#N)cc32)CCC[C@@]2(CN(c3ncccc3Cl)C(=O)O2)C1` [Example 137, 1-{[(5S,7S)-3-(3-chloro-2-pyridinyl)-7-methyl-2-oxo-1-oxa-3-azaspiro[4.5]dec-7-yl]methyl}-1H-benzimidazole-6-carbonitrile], the figure is 10 to 50 nM; as for `N#Cc1ccc2ncn(C[C@H]3CCC[C@]4(C3)CN(Cc3cn(-c5cncc(Cl)c5)nn3)C(=O)O4)c2c1` [Example 106, 1-[((5S,7S)-3-{[1-(5-chloro-3-pyridinyl)-1H-1,2,3-triazol-4-yl]methyl}-2-oxo-1-oxa-3-azaspiro[4.5]dec-7-yl)methyl]-1H-benzimidazole-6-carbonitrile], 10 to 50 nM; as for `COCCOC(C)(C)c1cnc(N2C[C@@]3(CCC[C@](C)(Cn4cnc5ccc(C#N)cc54)C3)OC2=O)cn1` [Example 163, 1-(((5S,7S)-3-(5-(2-(2-methoxyethoxy)propan-2-yl)pyrazin-2-yl)-7-methyl-2-oxo-1-oxa-3-azaspiro[4.5]decan-7-yl)methyl)-1H-benzo[d]imidazole-6-carbonitrile], 0.1 to 10 nM.
For the molecule `C[C@]1(Cn2cnc3ccc(C#N)cc32)CCC[C@@]2(CN(c3ccc(C(F)(F)F)cn3)C(=O)O2)C1` [Example 11, 1-({(5S,7S)-7-Methyl-2-oxo-3-[5-(trifluoromethyl)-2-pyridinyl]-1-oxa-3-azaspiro[4.5]dec-7-yl}methyl)-1H-benzimidazole-6-carbonitrile], the concentration for half-maximal inhibition (IC50) is 10 to 50 nM.
Take `N#Cc1ccc2ncn(C[C@H]3CCC[C@]4(C3)CN(Cc3cn(-c5cc(F)cc(F)c5)nn3)C(=O)O4)c2c1` [Example 101, 1-[((5S,7S)-3-{[1-(3,5-difluorophenyl)-1H-1,2,3-triazol-4-yl]methyl}-2-oxo-1-oxa-3-azaspiro[4.5]dec-7-yl)methyl]-1H-benzimidazole-6-carbonitrile]: the concentration for half-maximal inhibition (IC50) fell in the range of 10 to 50 nM.
With `Cc1ccc(N2C[C@@]3(CCC[C@](C)(Cn4cnc5ccc(C#N)cc54)C3)OC2=O)nc1` [Example 29, 1-{[(5S,7S)-7-methyl-3-(5-methyl-2-pyridinyl)-2-oxo-1-oxa-3-azaspiro[4.5]dec-7-yl]methyl}-1H-benzimidazole-6-carbonitrile], the IC50 fell in the range of 10 to 50 nM.
As for `COc1cccc(-n2cc(CN3C[C@@]4(CCC[C@H](Cn5cnc6ccc(C#N)cc65)C4)OC3=O)nn2)c1` [Example 95, 1-{[(5S,7S)-3-({1-[3-(methyloxy)phenyl]-1H-1,2,3-triazol-4-yl}methyl)-2-oxo-1-oxa-3-azaspiro[4.5]dec-7-yl]methyl}-1H-benzimidazole-6-carbonitrile], the figure is 10 to 50 nM; as for `N#Cc1ccc2ncn(C[C@H]3CCC[C@]4(C3)CN(Cc3cn(-c5ccnc(C(F)(F)F)c5)nn3)C(=O)O4)c2c1` [Example 100, 1-{[(5S,7S)-2-oxo-3-({1-[2-(trifluoromethyl)-4-pyridinyl]-1H-1,2,3-triazol-4-yl}methyl)-1-oxa-3-azaspiro[4.5]dec-7-yl]methyl}-1H-benzimidazole-6-carbonitrile], 0.1 to 10 nM.
For the molecule `COc1ncc(N2C[C@@]3(CCC[C@](C)(Cn4cnc5ccc(C#N)cc54)C3)OC2=O)cc1C` [Example 132, 1-(((5S,7S)-3-(6-methoxy-5-methylpyridin-3-yl)-7-methyl-2-oxo-1-oxa-3-azaspiro[4.5]decan-7-yl)methyl)-1H-benzo[d]imidazole-6-carbonitrile], the 50% inhibitory concentration (IC50) lay in the range of 0.1 to 10 nM.
As to `CC(C)c1ccc(N2C[C@@]3(CCC[C@H](Cn4cnc5ccc(C#N)cc54)C3)OC2=O)cn1` [Example 142, 1-({(5S,7S)-3-[6-(1-methylethyl)-3-pyridinyl]-2-oxo-1-oxa-3-azaspiro[4.5]dec-7-yl}methyl)-1H-benzimidazole-6-carbonitrile], the half-inhibitory concentration (IC50) lay in the range of 10 to 50 nM.
For the molecule `CCc1cc(N2C[C@@]3(CCC[C@](C)(Cn4cnc5ccc(C#N)cc54)C3)OC2=O)on1` [Example 33, 1-{[(5S,7S)-3-(3-ethyl-5-isoxazolyl)-7-methyl-2-oxo-1-oxa-3-azaspiro[4.5]dec-7-yl]methyl}-1H-benzimidazole-6-carbonitrile], the half-maximal inhibitory concentration (IC50) was in the range of 10 to 50 nM.
For `Cn1ccc(-c2cc(N3C[C@@]4(CCC[C@](C)(Cn5cnc6ccc(C#N)cc65)C4)OC3=O)on2)n1` [Example 51, 1-(((5S,7S)-7-methyl-3-(3-(1-methyl-1H-pyrazol-3-yl)isoxazol-5-yl)-2-oxo-1-oxa-3-azaspiro[4.5]decan-7-yl)methyl)-1H-benzo[d]imidazole-6-carbonitrile] the value was 10 to 50 nM; for `CCOc1cc(C)c(N2C[C@@]3(CCC[C@H](Cn4cnc5cc(F)c(C#N)cc54)C3)OC2=O)cn1` [Example 125, 1-(((5S,7S)-3-(6-ethoxy-4-methylpyridin-3-yl)-2-oxo-1-oxa-3-azaspiro[4.5]decan-7-yl)methyl)-5-fluoro-1H-benzo[d]imidazole-6-carbonitrile], 0.1 to 10 nM.
As for `CC(C)(C)c1ncc(N2C[C@@]3(CCC[C@](C)(Cn4cnc5ccc(C#N)cc54)C3)OC2=O)cn1` [Example 134, 1-(((5S,7S)-3-(2-(tert-butyl)pyrimidin-5-yl)-7-methyl-2-oxo-1-oxa-3-azaspiro[4.5]decan-7-yl)methyl)-1H-benzo[d]imidazole-6-carbonitrile], the figure is 0.1 to 10 nM.
In the case of `N#Cc1ccc2ncn(C[C@H]3CCC[C@]4(C3)CN(Cc3nnc(-c5ccccc5)[nH]3)C(=O)O4)c2c1` [Example 71, 1-({(5S,7S)-2-oxo-3-[(3-phenyl-1H-1,2,4-triazol-5-yl)methyl]-1-oxa-3-azaspiro[4.5]dec-7-yl}methyl)-1H-benzimidazole-6-carbonitrile], the IC50 lay within 50 to 500 nM.

The values above are taken from patent US9187464B2, “TRPV4 antagonists” (GlaxoSmithKline Intellectual Property (No. 2) Limited, priority 2011, dated 2015).
